# Experimental data published in PubChem BioAssay AID2060626 (Molecular Pharmacology Branch, DTP, NCI, 2025).
# pIC50: −log10 of the molar value.
# Tested on: 168753-222-R-J1-PDC complex spheroid viability
# Experiment: Anticancer human tumor 168753-222-R-J1-PDC patient-derived bladder carcinoma cell line growth inhibition [CLK]
# Conditions: for pIC50: curve of first compound; for viability, T/C: stronger effect = lower value
# Summary of the method: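 Multi-cell-type spheroids combined patient-derived tumor cells with HUVEC endothelial cells and human mesenchymal stem cells. Paired agents were dosed in half-log steps down from about clinical Cmax, or from 10 microM where Cmax was unknown.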
# 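Note: viability measured after seven days of drug exposure.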
# 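Throughout, for viability, T/C: luminescence signal used as surrogate for viable cell amount; 100% = DMSO vehicle control wells.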
smiles,measurement,setting,value
C=CC(=O)Nc1cc(Nc2nccc(-c3cn(C)c4ccccc34)n2)c(OC)cc1N(C)CCN(C)C + CNC(=O)c1ccc(Nc2nc(OC3CCCC3)c3c(-c4ccc5nc(C)oc5c4)c[nH]c3n2)c(OC)c1,pIC50,second compound 0.0316 µM,< 6.52
same,pIC50,second compound 0.1 µM,< 6.52
same,pIC50,second compound 0.316 µM,< 6.52
same,pIC50,second compound 1 µM,> 9.02
same,pIC50,second compound 3.16 µM,> 9.02
same,pIC50,second compound 10 µM,> 9.02
same,"viability, T/C","second compound 0.0316 µM, first compound 0.000949 µM",122%
same,"viability, T/C","second compound 0.0316 µM, first compound 0.003 µM",96.3%
same,"viability, T/C","second compound 0.0316 µM, first compound 0.00949 µM",102%
same,"viability, T/C","second compound 0.0316 µM, first compound 0.03 µM",102%
same,"viability, T/C","second compound 0.0316 µM, first compound 0.0949 µM",107%
same,"viability, T/C","second compound 0.0316 µM, first compound 0.3 µM",103%
same,"viability, T/C","second compound 0.1 µM, first compound 0.000949 µM",91.1%
same,"viability, T/C","second compound 0.1 µM, first compound 0.003 µM",87%
same,"viability, T/C","second compound 0.1 µM, first compound 0.00949 µM",86.7%
same,"viability, T/C","second compound 0.1 µM, first compound 0.03 µM",76.8%
same,"viability, T/C","second compound 0.1 µM, first compound 0.0949 µM",91.7%
same,"viability, T/C","second compound 0.1 µM, first compound 0.3 µM",90.2%
same,"viability, T/C","second compound 0.316 µM, first compound 0.000949 µM",73.5%
same,"viability, T/C","second compound 0.316 µM, first compound 0.003 µM",69.6%
same,"viability, T/C","second compound 0.316 µM, first compound 0.00949 µM",69.3%
same,"viability, T/C","second compound 0.316 µM, first compound 0.03 µM",63.8%
same,"viability, T/C","second compound 0.316 µM, first compound 0.0949 µM",71.8%
same,"viability, T/C","second compound 0.316 µM, first compound 0.3 µM",62.5%
same,"viability, T/C","second compound 1 µM, first compound 0.000949 µM",37.1%
same,"viability, T/C","second compound 1 µM, first compound 0.003 µM",39.1%
same,"viability, T/C","second compound 1 µM, first compound 0.00949 µM",38.5%
same,"viability, T/C","second compound 1 µM, first compound 0.03 µM",40.8%
same,"viability, T/C","second compound 1 µM, first compound 0.0949 µM",30.8%
same,"viability, T/C","second compound 1 µM, first compound 0.3 µM",29%
same,"viability, T/C","second compound 3.16 µM, first compound 0.000949 µM",18.2%
same,"viability, T/C","second compound 3.16 µM, first compound 0.003 µM",19.3%
same,"viability, T/C","second compound 3.16 µM, first compound 0.00949 µM",19.5%
same,"viability, T/C","second compound 3.16 µM, first compound 0.03 µM",22.8%
same,"viability, T/C","second compound 3.16 µM, first compound 0.0949 µM",19.6%
same,"viability, T/C","second compound 3.16 µM, first compound 0.3 µM",16.9%
same,"viability, T/C","second compound 10 µM, first compound 0.000949 µM",16.3%
same,"viability, T/C","second compound 10 µM, first compound 0.003 µM",19.8%
same,"viability, T/C","second compound 10 µM, first compound 0.00949 µM",18.5%
same,"viability, T/C","second compound 10 µM, first compound 0.03 µM",15.6%
same,"viability, T/C","second compound 10 µM, first compound 0.0949 µM",19.1%
same,"viability, T/C","second compound 10 µM, first compound 0.3 µM",15.6%
CC1(C)CCC(CN2CCN(c3ccc(C(=O)NS(=O)(=O)c4ccc(NCC5CCOCC5)c([N+](=O)[O-])c4)c(Oc4cnc5[nH]ccc5c4)c3)CC2)=C(c2ccc(Cl)cc2)C1 + CNC(=O)c1ccc(Nc2nc(OC3CCCC3)c3c(-c4ccc5nc(C)oc5c4)c[nH]c3n2)c(OC)c1,pIC50,second compound 0.0316 µM,5.19
same,pIC50,second compound 0.1 µM,5.24
same,pIC50,second compound 0.316 µM,5.34
same,pIC50,second compound 1 µM,7.34
same,pIC50,second compound 3.16 µM,> 7.50
same,pIC50,second compound 10 µM,> 7.50
same,"viability, T/C","second compound 0.0316 µM, first compound 0.0316 µM",109%
same,"viability, T/C","second compound 0.0316 µM, first compound 0.1 µM",112%
same,"viability, T/C","second compound 0.0316 µM, first compound 0.316 µM",104%
same,"viability, T/C","second compound 0.0316 µM, first compound 1 µM",109%
same,"viability, T/C","second compound 0.0316 µM, first compound 3.16 µM",97%
same,"viability, T/C","second compound 0.0316 µM, first compound 10 µM",22%
same,"viability, T/C","second compound 0.1 µM, first compound 0.0316 µM",99.7%
same,"viability, T/C","second compound 0.1 µM, first compound 0.1 µM",99.5%
same,"viability, T/C","second compound 0.1 µM, first compound 0.316 µM",101%
same,"viability, T/C","second compound 0.1 µM, first compound 1 µM",95.7%
same,"viability, T/C","second compound 0.1 µM, first compound 3.16 µM",90.2%
same,"viability, T/C","second compound 0.1 µM, first compound 10 µM",14%
same,"viability, T/C","second compound 0.316 µM, first compound 0.0316 µM",75.2%
same,"viability, T/C","second compound 0.316 µM, first compound 0.1 µM",77%
same,"viability, T/C","second compound 0.316 µM, first compound 0.316 µM",79.6%
same,"viability, T/C","second compound 0.316 µM, first compound 1 µM",80.3%
same,"viability, T/C","second compound 0.316 µM, first compound 3.16 µM",66.7%
same,"viability, T/C","second compound 0.316 µM, first compound 10 µM",12.6%
same,"viability, T/C","second compound 1 µM, first compound 0.0316 µM",50.4%
same,"viability, T/C","second compound 1 µM, first compound 0.1 µM",49.5%
same,"viability, T/C","second compound 1 µM, first compound 0.316 µM",38.4%
same,"viability, T/C","second compound 1 µM, first compound 1 µM",25.9%
same,"viability, T/C","second compound 1 µM, first compound 3.16 µM",27.2%
same,"viability, T/C","second compound 1 µM, first compound 10 µM",13.8%
same,"viability, T/C","second compound 3.16 µM, first compound 0.0316 µM",23.3%
same,"viability, T/C","second compound 3.16 µM, first compound 0.1 µM",23.1%
same,"viability, T/C","second compound 3.16 µM, first compound 0.316 µM",19.5%
same,"viability, T/C","second compound 3.16 µM, first compound 1 µM",20%
same,"viability, T/C","second compound 3.16 µM, first compound 3.16 µM",17.6%
same,"viability, T/C","second compound 3.16 µM, first compound 10 µM",23.9%
same,"viability, T/C","second compound 10 µM, first compound 0.0316 µM",18.1%
same,"viability, T/C","second compound 10 µM, first compound 0.1 µM",17.3%
same,"viability, T/C","second compound 10 µM, first compound 0.316 µM",17.6%
same,"viability, T/C","second compound 10 µM, first compound 1 µM",17.3%
same,"viability, T/C","second compound 10 µM, first compound 3.16 µM",15.8%
same,"viability, T/C","second compound 10 µM, first compound 10 µM",20.4%
